# Measured values as given in patent US20230285372A1, “Pharmaceutical use of (E)-3-arylheterocyclylprop-2-enoic acid derivatives” (MEDCURIUS INC., priority 2020, published 2023).
# Several values for one entry are separate records, joined by “and”; a condition that tells them apart may be missing. Identical values can stand only once.
# What was measured:
# [1] = tested on: MPTP-induced Parkinson's disease mouse; assay: Pole-climbing test, MPTP-induced Parkinson's disease mouse; format: in vivo; details: 40 days, vs model group
# Experimental: (§1) Male C57 mouse were screened for their motor function by a mouse rod-rotating test, and unqualified ones were excluded from the test. […] MPTP was injected subcutaneously every 4 days in the model group and the drug administration group with a dosage of 25 mg/kg for 40 consecutive days. Each group of I-5 was administered once a day at 8:00 am and 8:00 pm (by intragastric administration), twice in total. […] The intragastric volume was 0.1 ml/10 g body weight, and the behavior test was started 40 days later. […] The storage time of the prepared liquid medicine was not more than 24 hours.
# A climbing pole in the pole-climbing test was a rough wooden pole with a diameter of 2 cm and a length of 50 cm. The bottom of the wooden pole was located in the mouse home cage and was vertically oriented. When the mouse was placed on top of the wooden pole, it would naturally descend to the bottom of the wooden pole and reach the base of the pole. […] The mouse should have a pre-acclimation period of 2 days prior to the test, training five times a day. To the test day, the time required for the […] to reach the bottom (incubation period) was taken as an evaluation index to observe the effect of the tested compound on the motion ability of the mouse.
# HT-22 cells = assay: Protective effect on HT-22 cell damage caused by L-glutamate monosodium salt; format: cell-based, mouse; details: 15 mM L-glutamate
# Experimental: (§2) Well-proliferated HT-22 cells, derived from mouse hippocampal neuronal cells in logarithmic growth phase, were selected, and they were counted after being subjected to trypsin digestion and dispersion. The cell density was adjusted with DMEM/F12 medium (containing 10% FBS and 1% double antibody). The cells were then inoculated in a 96-well plate at a density of 2,000 cells per well, and cultured in a cell incubator at 37° C. in atmosphere containing 5% CO2 for 24 hours. For the control group and the L-glutamate monosodium salt group (model group), serum-free DMEM/F12 medium was added, and the other wells were added with tested compounds of different concentrations; except that the serum-free DMEM/F12 medium was added to the control group. L-glutamate monosodium salt solution at the final concentration of 15 mM was added to the remaining wells. After 24 hours, the cell viability was detected with a luminescent cell viability assay kit.
# as §2, with “group,” for “group.”
# as §2, with “2.000” for “2,000”, “group,” for “group.”
# [2] = tested on: tyrosine hydroxylase (TH); assay: Tyrosine hydroxylase (TH) level in midbrain, immunohistochemistry, MPTP mouse; format: in vivo; details: medium and high dosage of I-5 (10 and 20 mg/kg bid); vs model group
# Experimental: Male C57 mouse were screened for their motor function by a mouse rod-rotating test, and unqualified ones were excluded from the test. […] MPTP was injected subcutaneously every 4 days in the model group and the drug administration group with a dosage of 25 mg/kg for 40 consecutive days. Each group of I-5 was administered once a day at 8:00 am and 8:00 pm (by intragastric administration), twice in total. The control group and model group were given the corresponding solvent once a day in the morning (by intragastric administration) while the positive control group (L-DOPA) was given L-DOPA once a day in the morning (by intragastric administration). The intragastric volume was 0.1 ml/10 g body weight, and the behavior test was started 40 days later. […] The storage time of the prepared liquid medicine was not more than 24 hours.
# HO-1 = HO-1 expression in HT-22 cytoplasm, Western Blot; format: cell-based, mouse; details: HT-22 cells, 1.25 μM and 0.625 μM, 24 hours, vs control group
# Excerpt: As a transcription factor, Nrf2 needs to enter the nucleus and combine with ARE sequence to play a role in transcriptional activation. Therefore, Nrf2 protein level in the nucleus is an important prerequisite for the activation of Nrf2 signaling pathway. NQO-1 and HO-1 are target genes regulated by Nrf2, and the increase of their protein levels is an important sign of activation of the Nrf2 signaling pathway.
# HT-22 cells in logarithmic growth phase were selected, the culture medium was discarded, the cells were digested with 0.25% Trypsin containing EDTA, and cell suspension was made. Cell density was adjusted to 50000/ml with DMEM/F12 medium (containing 10% FBS and 1% double antibody) and it was inoculated to 6-well plate, with 2000 μL/well, the number of cells per well was 100, 000, and the cells were cultured in a cell incubator at 37° C. in an atmosphere containing 5% CO2 for 24 hours. Then, the medium of each well was replaced with new 1980 μL DMEM/F12 medium. […] After 24 hours, the cells were collected, nuclear protein and cytoplasmic protein were extracted, and the level of Nrf2 in the nucleus and the expression of NQO-1 and HO-1 in cytoplasm were detected by Western Blot.
# [3] = tested on: MPTP-induced Parkinson's disease mouse; assay: Model of MPTP-induced Parkinson's disease mouse, overall conclusion; format: in vivo; details: improves MPTP-induced dyskinesia and inhibits neurodegeneration; bid intragastric
# Experimental: as §1
# α-synuclein protein = α-synuclein protein level in midbrain, Western blot, MPTP mouse; format: in vivo; details: high dosage treatment group of I-5; vs model group, p<0.05
# Excerpt: The core pathological change of Parkinson's disease is the loss of dopaminergic neurons. Tyrosine hydroxylase (TH), the rate-limiting enzyme in dopamine synthesis, is the landmark protein of the dopaminergic neurons. Therefore, the decrease in its level indicates the loss of the dopaminergic neurons. A key protein for the occurrence and development of Parkinson's disease is α-synuclein protein, and the abnormal modification (hyperphosphorylation) of this protein can inhibit microtubule polymerization, enhance oxidative stress, and thus accelerate the death of the dopaminergic neurons.
# Male C57 mouse were screened for their motor function by a mouse rod-rotating test, and unqualified ones were excluded from the test. […] MPTP was injected subcutaneously every 4 days in the model group and the drug administration group with a dosage of 25 mg/kg for 40 consecutive days. Each group of I-5 was administered once a day at 8:00 am and 8:00 pm (by intragastric administration), twice in total. […]
# Tissues from all the animals were collected on the second day after the end of the behavioral experiment. […] The level of tyrosine hydroxylase (TH), a marker protein of dopaminergic neurons, was detected by immumohistochemistry, and α-synuclein protein level and phosphorylation level of the protein were detected by Western blot.
compound,measurement,setting,value
N#C/C=C/c1ccccn1 [Compound I-5],latency of mouse reaching the base of the pole,"[1]; I-5 5 mg/kg bid intragastric, p<0.01",significantly shortened
same,latency of mouse reaching the base of the pole,"[1]; I-5 10 mg/kg bid intragastric, p<0.0001",significantly shortened
same,latency of mouse reaching the base of the pole,"[1]; I-5 20 mg/kg bid intragastric, p<0.0001",significantly shortened
same,"protection of HT22 cells against L-glutamate monosodium salt damage, in words","HT-22 cells; HT22 cells, comparison with positive control drug DMF",better effects than the positive control drug DMF
same,viability at 0.156 µM,"HT-22 cells; Mus musculus, HT-22, 24 h, Table 1, Conc 0.156 μm, 24 hours, L-Glu alone 27.73 (I-5 32.92), read-out: cell viability",79.3%
same,viability at 0.625 µM,"HT-22 cells; Mus musculus, HT-22, 24 h, Table 1, Conc 0.625 μm, 24 hours, L-Glu alone 27.73 (I-5 32.92), read-out: cell viability",73.7%
same,viability at 2.5 µM,"HT-22 cells; Mus musculus, HT-22, 24 h, Table 1, Conc 2.5 μm, 24 hours, L-Glu alone 27.73 (I-5 32.92), read-out: cell viability",57.6%
same,viability at 5 µM,"HT-22 cells; Mus musculus, HT-22, 24 h, Table 1, Conc 5 μm, 24 hours, L-Glu alone 27.73 (I-5 32.92), read-out: cell viability",58.2%
same,TH positive area of substantia nigra,[2],significantly increase the TH positive area
same,protein level of HO-1,HO-1,increased significantly
same,effective doses,[3],10 mg/kg and 20 mg/kg
same,α-synuclein protein level in the midbrain,α-synuclein protein,significantly higher than that of the model group
